The experiment relates to LU-01-0046 non-small-cell lung carcinoma (NSCLC) PDX model. The experiment is described as follows: Efficacy in LU-01-0046 NSCLC PDX model (high MT1-expressing, docetaxel resistant). The class given is in vivo, Balb/C nude mice. From the text:
The objective of the project is to evaluate the in vivo therapeutic efficacy of test articles in the LU-01-0046 non-small-cell lung carcinoma (NSCLC) PDX model. LU-01-0046 is a high MT1-expressing NSCLC that is docetaxel resistant.
Each mouse was inoculated subcutaneously at the right flank with certain kind of tumor fragment (30 mm3) for tumor development. The treatments started when the average tumor volume reaches approximately 150-200 mm^3. The test article administration and the animal numbers in each group are shown in Table 40 which details the experimental design.
Treatment was given until the control tumors reached an average of 1000 mm^3.
Before commencement of treatment all animals will be weighed and the tumor volumes will be measured. Since the tumor volume can affect the effectiveness of any given treatment, mice will be assigned into groups using randomized block design based upon their tumor volumes.
The protocol and any amendment(s) or procedures involving the care and use of animals in this study will be reviewed and approved prior to conduct. […] At the time of routine monitoring, the animals will be checked for any effects of tumor growth and treatments on normal behavior such as mobility, food and water consumption, body weight gain/loss (body weights will be measured twice weekly), eye/hair matting and any other abnormal effect. Death and observed clinical signs will be recorded on the basis of the numbers of animals within each subset.
The major endpoint is to see if the tumor growth can be delayed or mice can be cured. Tumor sizes will be measured twice weekly in two dimensions using a caliper and the volume will be expressed in mm^3 using the formula: V=0.5 a×b^2 where a and b are the long and short diameters of the tumor, respectively. […] T-C is calculated with T as the median time (in days) required for the treatment group tumors to reach a predetermined size (e.g., 1.000 mm^3), and C is the median time (in days) for the control group tumors to reach the same size. […]
TGI is calculated for each group using the formula. […]

Structures are written as SMILES. *1 amine or outer side, *2 acyl side, *3 side chain or, on linkers, in order; H or OH if unused. Where a SMILES comes first, the peptide text is derived from it. Bridges are numbered along the chain shown (N, C = ends). [ ]: non-standard residue; d: D form. The star is where a group is joined. X1 = COc1cc2cc(c1Cl)N(C)C(=O)C[C@H](OC(=O)[C@H](C)N(C)C(=O)CCSSC(C)CCC(=O)*)[C@]1(C)O[C@H]1[C@H](C)[C@@H]1C[C@@](O)(NC(=O)O1)[C@H](OC)/C=C/C=C(\C)C2; 1Nal = N[C@@H](Cc1cccc2ccccc12)C(=O)O; TBMB = c1c(C[*:1])cc(C[*:3])cc1C[*:2]; Tle = CC(C)(C)[C@H](N)C(=O)O; βAla = NCCC(=O)O; Sar = CNCC(=O)O

Turning to `COc1cc2cc(c1Cl)N(C)C(=O)C[C@H](OC(=O)[C@H](C)N(C)C(=O)CCSSC(C)CCC(=O)NCCC(=O)N(C)CC(=O)N(C)CC(=O)N(C)CC(=O)N(C)CC(=O)N(C)CC(=O)N(C)CC(=O)N(C)CC(=O)N(C)CC(=O)N(C)CC(=O)N(C)CC(=O)N[C@@H](C)C(=O)N[C@H]1CSCc3cc4cc(c3)CSC[C@H](NC(=O)[C@@H](C)NC(=O)[C@H](Cc3cccc5ccccc35)NC(=O)[C@H](CCC(=O)O)NC(=O)[C@H](CC(N)=O)NC(=O)[C@@H](C)NC1=O)C(=O)N[C@@H](CCC(=O)O)C(=O)N[C@@H](CC(=O)O)C(=O)N[C@@H](Cc1ccccc1)C(=O)N[C@@H](Cc1ccc(O)cc1)C(=O)N[C@@H](CC(=O)O)C(=O)N[C@@H](C(C)(C)C)C(=O)N[C@H](C(N)=O)CSC4)[C@]1(C)O[C@H]1[C@H](C)[C@@H]1C[C@@](O)(NC(=O)O1)[C@H](OC)/C=C/C=C(\C)C2` (stereo partly drawn) [BT1718] ({X1-βAla}-[Sar][Sar][Sar][Sar][Sar][Sar][Sar][Sar][Sar][Sar]AC[dA]NE[1Nal][dA]CEDFYD[Tle]C-NH2; linker 12-18-25 via TBMB (inferred)), the tumor response entry (3 mg/kg biw) was “tumor stasis”. Also, for the setting “10 mg/kg biw”, the “relapse after cessation of dosing” value was “lack of relapse” and the tumor response entry was “tumor eradication”.

The values are drawn from patent US10441663B2, “Methods for treating cancer” (Bicycle Therapeutics Limited, priority 2016, dated 2019).
